Data published in patent US9216992B2, “Thieno[3,2-c]pyridine potassium channel inhibitors” (Xention Limited, priority 2005, dated 2015).

Columns and labels:
human Kv1.3 = target: T1, human Kv1.3 (Homo sapiens, UniProt P22001); test: Kv1.3 Autopatch Electrophysiology; type: cell-based; settings: 1 μM compound, CHO cells stably transfected with human Kv1.3, AutoPatch whole cell mode, room temperature; for inhibition at 1 µM: read-out: Kv 1.3% Inhibition at 1 μM
T1 construct: expressed in transfected cells; host or cells: stably transfected cells
Description: Kv1.3 Autopatch Electrophysiology Method
(§1) Cells stably transfected with cDNA for human Kv1.3 (in pcDNA3.1) were grown in Ex-cell 302 serum-free medium for CHO cells, supplemented with 10 μl/ml [100×] glutamine, 500 μg/ml G418 (gentimicin), and 1% HT supplement (50×, hypoxanthine and thymidine). Compounds were tested on these cells using the AutoPatch technology in whole cell mode.
The external bathing solution contained (in mM): 150 NaCl, 10 KCl, 1 MgCl2, 3 CaCl2, 10 HEPES, pH 7.4 with NaOH. Patch pipettes were filled with an electrode solution of composition (in mM): 100 K-Gluconate, 20 KCl, 1 MgCl2, 1 CaCl2, 10 HEPES, 11 EGTA, 5 ATP—Na2, 2 Glutathione pH 7.2 with KOH.
(§2) Compounds were dissolved in DMSO (100%) and made up in the external bather at a concentration of 1 μM. All experiments were conducted at room temperature (22-24° C.).
(§3) A cell suspension (10 ml), with a density of 100,000 cells/ml, was aliquoted into a 15 ml centrifuge tube and transferred to an incubator (37° C., 5% CO2) for approximately one hour before use. Following 60 min incubation, a tube was taken and centrifuged at 1000 rpm for 4 mins at room temperature. 9.5 ml supernatant was thence discarded, leaving a cell pellet at the bottom of the tube. The pellet was then resuspended using 100 μl of cold (4° C.), filtered (0.22 μm), 0.2% BSA/bather solution (0.02 g BSA/10 ml bather). The bottom of the tube was manually agitated gently until the solution became cloudy with cells. The 100 μl cell resuspension solution was then stored on the bench at 4° C. (using a Peltier-based temperature control device) until used.
(§4) A length of capillary glass (1B150F-4, WPI) was dipped into the cell suspension solution, such that ˜3 cm column of fluid was taken up by capillary action. A Ag/AgCl wire was dropped into the non-dipped end of the capillary also. The outside of the solution-filled end of the capillary was then dried and the capillary was loaded into the AutoPatch™. Borosilicate glass patch pipettes (from 1.5 mm OD, thin-walled filamented, GC150-TF capillary glass, Harvard) were pulled using a DMZ pipette puller (Zeitz Instruments), and were back-filled using the internal pipette solution, being careful that no bubbles remain at the tip or in the body of the pipette. Patch pipettes typically had resistances of 2.3-3.5 MΩ. Once filled, the pipette tip and a proportion of the shaft (˜15 mm) were dipped into Sigmacote (Sigma). The recording pipette was then loaded into the AutoPatch™. Automated patch-clamping was initiated by the operator, but thereafter AutoPatch.exe continued the experiment providing that pre-set conditions and criteria were satisfied.
(§5) Whole cell patch-clamp recordings were made using the AutoPatch™ rig, which incorporated an EPC9 or EPC10 amplifier (HEKA, Germany) under control of Pulse software (v8.54 or v8.76, HEKA, Germany), a motion controller with 2 translators (Newport, UK), valve controller (VF1) and a c-level suction device all at room temperature (22-24° C.). This equipment was completely under the control of AutoPatch.exe and operator intervention was only made when there was a requirement to refill the drug reservoirs or to prevent the loss of a cell due to a technical error. Cells with an Rseries greater than 18 MΩ were discounted from the experiment.
(§6) Qualification stages prior to perfusion and drug application ensured that the observed current met the criteria for the experiment. Only those cells with an IK>400 pA were used for experiments. Cells were continuously perfused with external solution at a flow rate of 1.8-2 ml/minute. […] Online analysis of the hKv1.3 current during the application of compounds was performed by the AutoPatch™ software. Voltage-step protocols and analysis of data was performed as described for conventional electrophysiology.
(§7) Electrophysiology voltage-step protocols and analysis of data was performed as follows. Data was sampled at 5 kHz, and filtered with a −3 dB bandwidth of 2.5 kHz. Cells were held at a voltage of −80 mV. […]

human Kv1.5 = target: T2, human Kv1.5 (Homo sapiens, UniProt P22460); test: Kv1.5 Autopatch Electrophysiology; type: cell-based; settings: 1 μM compound, CHO cells stably transfected with human Kv1.5, AutoPatch whole cell mode, room temperature; for inhibition at 1 µM: read-out: Kv 1.5% Inhibition at 1 μM
T2 construct: expressed in transfected cells; host or cells: stably transfected cells
Description: Kv1.5 Autopatch Electrophysiology Method
as §1, with “Kv1.5” for “Kv1.3”, “pEF6::VA-His-TOPO)” for “pcDNA3.1)”, “5” for “500”, “blasticidin” for “G418 (gentimicin),”
The external bathing solution contained (in mM): 150 NaCl, 10 KCl, 1 MgCl2, 3 CaCl2, 10 HEPES, pH 7.4 with NaOH. Patch pipettes were filled with an electrode solution of composition (in mM): 160 KCl, 0.5 MgCl2, 10 HEPES, 1 EGTA, pH 7.4 with KOH.
as §2, §3, §4, §5
as §6, with “IK>500” for “IK>400”, “hKv1.5” for “hKv1.3”
as §7

T1 sequence (P22001 whole entry): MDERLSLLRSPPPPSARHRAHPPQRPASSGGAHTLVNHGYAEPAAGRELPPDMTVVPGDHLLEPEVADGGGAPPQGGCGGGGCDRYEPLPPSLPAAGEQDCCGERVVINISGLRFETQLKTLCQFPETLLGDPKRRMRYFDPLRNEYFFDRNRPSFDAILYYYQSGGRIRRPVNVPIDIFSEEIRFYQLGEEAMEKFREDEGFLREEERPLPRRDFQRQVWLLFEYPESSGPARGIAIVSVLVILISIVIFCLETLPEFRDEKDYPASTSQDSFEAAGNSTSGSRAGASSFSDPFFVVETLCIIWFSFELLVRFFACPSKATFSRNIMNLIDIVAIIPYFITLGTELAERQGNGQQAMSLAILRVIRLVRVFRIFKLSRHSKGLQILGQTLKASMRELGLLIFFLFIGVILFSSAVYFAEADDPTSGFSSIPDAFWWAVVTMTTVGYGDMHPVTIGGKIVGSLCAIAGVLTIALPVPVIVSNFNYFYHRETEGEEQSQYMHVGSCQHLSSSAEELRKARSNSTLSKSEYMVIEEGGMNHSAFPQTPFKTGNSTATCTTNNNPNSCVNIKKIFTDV
T2 sequence (P22460 whole entry): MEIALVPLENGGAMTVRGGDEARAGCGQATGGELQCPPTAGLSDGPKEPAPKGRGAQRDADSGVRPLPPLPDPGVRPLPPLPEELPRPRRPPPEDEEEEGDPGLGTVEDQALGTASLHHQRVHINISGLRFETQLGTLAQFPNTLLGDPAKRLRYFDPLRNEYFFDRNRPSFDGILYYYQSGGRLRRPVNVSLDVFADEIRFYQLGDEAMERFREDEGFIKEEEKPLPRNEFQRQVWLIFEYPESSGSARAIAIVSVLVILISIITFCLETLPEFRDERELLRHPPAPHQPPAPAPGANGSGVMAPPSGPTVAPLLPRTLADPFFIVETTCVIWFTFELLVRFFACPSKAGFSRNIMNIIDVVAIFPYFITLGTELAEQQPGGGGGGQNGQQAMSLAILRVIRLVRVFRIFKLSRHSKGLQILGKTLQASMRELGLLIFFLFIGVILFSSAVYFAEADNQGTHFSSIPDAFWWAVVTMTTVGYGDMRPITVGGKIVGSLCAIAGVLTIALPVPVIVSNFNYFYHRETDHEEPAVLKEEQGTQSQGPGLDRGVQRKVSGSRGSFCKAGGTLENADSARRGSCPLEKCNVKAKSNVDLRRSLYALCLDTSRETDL

Compound	inhibition at 1 µM (human Kv1.3)	inhibition at 1 µM (human Kv1.5)	Kv 1.3% Inhibition at 1 μM (human Kv1.3)	Kv 1.5% Inhibition at 1 μM (human Kv1.5)
c1cc2scc(-c3ccc4c(c3)OCO4)c2c(NCc2ccc3c(c2)OCCO3)n1 [Example 20, (3-Benzo[1,3]dioxol-5-yl-thieno[3,2-c]pyridin-4-yl)-(2,3-dihydro-benzo[1,4]dioxin-6-ylmethyl)-amine]	83.5%	90.2%		
Cc1ccc(-c2csc3c(-c4cccc(O)c4)cnc(NCc4ccccc4)c23)cc1 [Example 36, 3-(4-Benzylamino-3-p-tolyl-thieno[3,2-c]pyridin-7-yl)-phenol]	15.5%	52.4%		
Cc1ccc(-c2csc3c(-c4cccc(C(=O)O)c4)cnc(NCc4ccccc4)c23)cc1 [Example 38, 3-(4-Benzylamino-3-p-tolyl-thieno[3,2-c]pyridin-7-yl)-benzoic acid]	41.3%	84.8%		
Cc1cccnc1CNc1nccc2scc(-c3ccccc3)c12 [Example 31, (3-Methyl-pyridin-2-ylmethyl)-(3-phenyl-thieno[3,2-c]pyridin-4-yl)-amine]			71.8%	78.4%
Cc1ccc(-c2csc3ccnc(NCc4ccccc4)c23)cc1 [Example 24, Benzyl-(3-p-tolyl-thieno[3,2-c]pyridin-4-yl)-amine]	81.2%	90.2%		
Cc1ccc(-c2cnc(NCc3ccccc3)c3c(-c4ccc(C)cc4)csc23)cc1 [Example 33, Benzyl-(3,7-di-p-tolyl-thieno[3,2-c]pyridine-4-yl)-amine]	24.4%	39.2%		
Cc1ccc(-c2csc3c(-c4cccc(S(C)(=O)=O)c4)cnc(NCc4ccccc4)c23)cc1 [Example 41, Benzyl-[7-(3-methanesulfonyl-phenyl)-3-p-tolyl-thieno[3,2-c]pyridin-4-yl]-amine]	26.3%	39.8%		
c1csc(CNc2nccc3scc(-c4ccc5c(c4)OCO5)c23)c1 [Example 16, (3-Benzo[1,3]dioxol-5-yl-thieno[3,2-c]pyridin-4-yl)-thiophen-2-ylmethyl-amine]	90.3%	81.2%		
COc1cccc(-c2csc3ccnc(NCc4cccs4)c23)c1 [Example 13, [3-(3-Methoxy-phenyl)-thieno[3,2-c]pyridin-4-yl]-thiophen-2-ylmethyl-amine]	83.2%	89.4%		
